Measurements from the supplement of paper PMC11061612.

Tests used:
Test in all cases: Bliss excess, mean over the matrix (fraction); higher = more synergy
[1] = test system: BE-13 (T-Lymphoblastic Leukemia)
Summary of the method: (§1)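 Bliss excess equals the observed combination effect minus the expected value EA + EB − EA·EB, where EA and EB are the effects of each agent alone. Combination Emax is the second-highest inhibition within the matrix. Inhibition was scaled from CellTiter-Glo 2.0 luminescence, with 0 set by vehicle wells and 1 by blank wells, after 72 hours of two-drug dosing of cells plated in 1536-well plates.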

BE2-M17 (Neuroblastoma) = test system: BE2-M17 (Neuroblastoma)
Summary of the method: as §1

[2] = test system: CAL-33 (Oral Cavity Carcinoma)
Summary of the method: as §1

CAL-72 (Osteosarcoma) = test system: CAL-72 (Osteosarcoma)
Summary of the method: as §1

EW-11 (Ewing's Sarcoma) = test system: EW-11 (Ewing's Sarcoma)
Summary of the method: as §1

GAMG (Glioblastoma) = test system: GAMG (Glioblastoma)
Summary of the method: as §1

[3] = test system: HeLa (Cervical Carcinoma)
Summary of the method: as §1

[4] = test system: HuH-7 (Hepatocellular Carcinoma)
Summary of the method: as §1

KS-1 (Glioblastoma) = test system: KS-1 (Glioblastoma)
Summary of the method: as §1

[5] = test system: L-428 (Hodgkin's Lymphoma)
Summary of the method: as §1

[6] = test system: LS-123 (Colorectal Carcinoma)
Summary of the method: as §1

[7] = test system: NCI-H1568 (Lung Adenocarcinoma)
Summary of the method: as §1

[8] = test system: NCI-H209 (Small Cell Lung Carcinoma)
Summary of the method: as §1

NCI-H2722 (Mesothelioma) = test system: NCI-H2722 (Mesothelioma)
Summary of the method: as §1

[9] = test system: NCI-H524 (Small Cell Lung Carcinoma)
Summary of the method: as §1

[10] = test system: OE21 (Esophageal Squamous Cell Carcinoma)
Summary of the method: as §1

[11] = test system: SNU-16 (Gastric Carcinoma)
Summary of the method: as §1

[12] = test system: SNU-449 (Hepatocellular Carcinoma)
Summary of the method: as §1

[13] = test system: TGBC1TKB (Biliary Tract Carcinoma)
Summary of the method: as §1

Compound | Bliss excess [1] | Bliss excess (BE2-M17 (Neuroblastoma)) | Bliss excess [2] | Bliss excess (CAL-72 (Osteosarcoma)) | Bliss excess (EW-11 (Ewing's Sarcoma)) | Bliss excess (GAMG (Glioblastoma)) | Bliss excess [3] | Bliss excess [4] | Bliss excess (KS-1 (Glioblastoma)) | Bliss excess [5] | Bliss excess [6] | Bliss excess [7] | Bliss excess [8] | Bliss excess (NCI-H2722 (Mesothelioma)) | Bliss excess [9] | Bliss excess [10] | Bliss excess [11] | Bliss excess [12] | Bliss excess [13]
COc1cccc(OCCCN)c1-c1cc(Nc2cnc(C#N)cn2)n[nH]1 [Prexasertib] + C=CCn1c(=O)c2cnc(Nc3ccc(N4CCN(C)CC4)cc3)nc2n1-c1cccc(C(C)(C)O)n1 [AZD1775] (first compound max 1 µM, partner max 1 µM) | 0.0317 | 0.098 | 0.117 | 0.0055 | -0.0815 | 0.0606 | 0.0651 | 0.0469 | -0.0244 | 0.0109 | -0.0296 | 0.0284 | 0.0444 | 0.0156 | 0.053 | -0.0663 | 0.0756 | -0.0048 | 0.0068
CS(=O)(=O)CCNCc1ccc(-c2ccc3ncnc(Nc4ccc(OCc5cccc(F)c5)c(Cl)c4)c3c2)o1 [Lapatinib] + NC1(c2ccc(-c3nc4ccn5c(=O)[nH]nc5c4cc3-c3ccccc3)cc2)CCC1 [MK-2206] (first compound max 10 µM, 7x7, partner max 10 µM) | -0.0842 |  |  | 0.0288 | -0.0003 | 0.016 |  |  | -0.0185 |  | 0.0101 |  |  |  | 0.0223 |  | 0.0758 | 0.0446 | 0.0079
C[C@@H](Oc1cc(-c2cnn(C3CCNCC3)c2)cnc1N)c1c(Cl)ccc(F)c1Cl [Crizotinib] + CC1=C(C(=CC=C1)Cl)NC(=O)C2=CN=C(S2)NC3=CC(=NC(=N3)C)N4CCN(CC4)CCO [Dasatinib] (first compound max 10 µM, 7x7, partner max 2 µM) | 0.0321 |  |  | 0.0078 | -0.0571 | 0.0164 |  |  | 0.0499 |  | 0.0166 |  |  |  | -0.0264 |  | 0.0279 | 0.0569 | 0.0435
CCc1c2c(nc3ccc(O)cc13)-c1cc3c(c(=O)n1C2)COC(=O)[C@]3(O)CC [SN-38] + O=C(c1cc(Cc2n[nH]c(=O)c3ccccc23)ccc1F)N1CCN(C(=O)C2CC2)CC1 [Olaparib] (first compound max 0.3 µM, 7x7, partner max 10 µM) | 0.0503 | 0.0082 | 0.0519 | 0.113 | -0.0291 | 0.109 | 0.0232 |  | 0.0068 | 0.0367 | 0.0301 |  |  | 0.0188 | 0.0488 | -0.0198 | 0.0005 | -0.0319 | 0.0009
Cc1c2c(nn1C)CSCc1cc(n(C)n1)CSc1cc(c3ccccc3c1)OCCCc1c(C(=O)O)n(C)c3c-2c(Cl)ccc13 [AZD5991] + CS(=O)(=O)CCNCc1ccc(-c2ccc3ncnc(Nc4ccc(OCc5cccc(F)c5)c(Cl)c4)c3c2)o1 [Lapatinib] (first compound max 1 µM, 7x7, partner max 10 µM) | 0.0363 |  |  | 0.0088 | -0.0014 | 0.0088 |  |  | -0.0277 |  | -0.0106 |  |  |  | -0.0908 |  | -0.0003 | 0.0212 | -0.0463
C=CCn1c(=O)c2cnc(Nc3ccc(N4CCN(C)CC4)cc3)nc2n1-c1cccc(C(C)(C)O)n1 [AZD1775] + Nc1ccn([C@@H]2O[C@H](CO)[C@@H](O)C2(F)F)c(=O)n1 [Gemcitabine] (first compound max 1 µM, partner max 0.3 µM) | 0.0778 |  |  | -0.0796 | -0.0613 | 0.0684 |  |  | 0.0304 |  | -0.0068 |  |  |  | 0.0443 |  | -0.013 | -0.0186 | -0.02
C=CCn1c(=O)c2cnc(Nc3ccc(N4CCN(C)CC4)cc3)nc2n1-c1cccc(C(C)(C)O)n1 [AZD1775] + CCc1c2c(nc3ccc(O)cc13)-c1cc3c(c(=O)n1C2)COC(=O)[C@]3(O)CC [SN-38] (first compound max 1 µM, partner max 0.3 µM) | -0.0186 |  |  | 0.017 | -0.113 | 0.001 |  |  | -0.0389 |  | -0.0581 |  |  |  | -0.0355 |  | -0.0475 | -0.0298 | -0.0491
O=C(c1cc(Cc2n[nH]c(=O)c3ccccc23)ccc1F)N1CCN(C(=O)C2CC2)CC1 [Olaparib] + COc1nnc2ccc(N3CCC(c4ccc(OCCN5CCN(C)C(=O)[C@H]5C)cc4)CC3)nn12 [AZD5153] (first compound max 10 µM, 7x7, partner max 1 µM) | -0.0681 |  |  | -0.0056 | -0.0063 | -0.002 |  |  | -0.0205 |  | -0.0084 |  |  |  | -0.0532 |  | -0.0066 | -0.0587 | -0.0322
Cc1nc(-c2cn3c(n2)-c2ccc(-c4cnn(C(C)(C)C(N)=O)c4)cc2OCC3)n(C(C)C)n1 [Taselisib] + O=C(Nc1ccc2[nH]nc(-c3ccncc3)c2c1)[C@@H]1CCN(CC(=O)N2CCN(c3ccc(-c4ncccn4)cc3)CC2)C1 [SCH772984] (first compound max 10 µM, 7x7, partner max 5 µM) | -0.0347 |  |  | -0.0562 | -0.002 | 0.0241 |  |  | 0.0097 |  | 0.0028 |  |  |  | 0.0464 |  | 0.123 | 0.0076 | 0.0043
O=C(c1cc(Cc2n[nH]c(=O)c3ccccc23)ccc1F)N1CCN(C(=O)C2CC2)CC1 [Olaparib] + Cc1c2c(nn1C)CSCc1cc(n(C)n1)CSc1cc(c3ccccc3c1)OCCCc1c(C(=O)O)n(C)c3c-2c(Cl)ccc13 [AZD5991] (first compound max 10 µM, 7x7, partner max 1 µM) | 0.0142 |  |  | -0.0242 | -0.0175 | -0.0488 |  |  | -0.0463 |  | -0.0658 |  |  |  | 0.0147 |  | 0.0603 | -0.045 | -0.0334
CS(=O)(=O)CCNCc1ccc(-c2ccc3ncnc(Nc4ccc(OCc5cccc(F)c5)c(Cl)c4)c3c2)o1 [Lapatinib] + Cn1cnc2c(F)c(Nc3ccc(Br)cc3Cl)c(C(=O)NOCCO)cc21 [Selumetinib] (first compound max 10 µM, 7x7, partner max 10 µM) | -0.0253 |  |  | -0.0254 | -0.0259 | -0.06 |  |  | -0.0387 |  | 0.0002 |  |  |  | -0.0534 |  | -0.0169 | -0.0601 | 0.034
CC1(C)CCC(CN2CCN(c3ccc(C(=O)NS(=O)(=O)c4ccc(NCC5CCOCC5)c([N+](=O)[O-])c4)c(Oc4cnc5[nH]ccc5c4)c3)CC2)=C(c2ccc(Cl)cc2)C1 [Venetoclax] + CS(=O)(=O)CCNCc1ccc(-c2ccc3ncnc(Nc4ccc(OCc5cccc(F)c5)c(Cl)c4)c3c2)o1 [Lapatinib] (first compound max 1 µM, 7x7, partner max 10 µM) | -0.0101 |  |  | -0.0527 | 0.0195 | -0.0231 |  |  | -0.0411 |  | -0.0595 |  |  |  | -0.0393 |  | 0.0168 | -0.0572 | -0.0308
Cc1c2c(nn1C)CSCc1cc(n(C)n1)CSc1cc(c3ccccc3c1)OCCCc1c(C(=O)O)n(C)c3c-2c(Cl)ccc13 [AZD5991] + Nc1ccn([C@@H]2O[C@H](CO)[C@@H](O)C2(F)F)c(=O)n1 [Gemcitabine] (first compound max 1 µM, 7x7, partner max 0.3 µM) | -0.0088 |  |  | 0.0305 | -0.0422 | -0.0026 |  |  | -0.0354 |  | -0.0176 |  |  |  | -0.0212 |  | 0.0183 | -0.0021 | 0.0006
O=C(c1cc(Cc2n[nH]c(=O)c3ccccc23)ccc1F)N1CCN(C(=O)C2CC2)CC1 [Olaparib] + CN(CC[C@H](CSC1=CC=CC=C1)NC2=C(C=C(C=C2)S(=O)(=O)NC(=O)C3=CC=C(C=C3)N4CCC(CC4)[C@H](C5=CC=CC=C5C6=CC=C(C=C6)Cl)O)S(=O)(=O)C(F)(F)F)CCO [AZD4320] (first compound max 10 µM, 7x7, partner max 1 µM) | 0.0096 |  |  | -0.0332 | 0.0141 | -0.034 |  |  | -0.041 |  | -0.0647 |  |  |  | 0.0085 |  | 0.0432 | -0.0422 | -0.049
C[C@@H]1COCCN1c1cc(C2([S@](C)(=N)=O)CC2)nc(-c2ccnc3[nH]ccc23)n1 [AZD6738] + C1CC(C1)(C(=O)[O-])C(=O)[O-].N.N.[Pt+2] [Carboplatin] (first compound max 10 µM, 7x7, partner max 10 µM) | -0.0436 |  |  | -0.063 | -0.041 | -0.0162 |  |  | -0.0536 |  | -0.0239 |  |  |  | -0.0512 |  | 0.0045 | -0.0341 | -0.0375
C[C@@H]1COCCN1c1cc(C2([S@](C)(=N)=O)CC2)nc(-c2ccnc3[nH]ccc23)n1 [AZD6738] + Nc1ccn([C@@H]2O[C@H](CO)[C@@H](O)C2(F)F)c(=O)n1 [Gemcitabine] (first compound max 10 µM, 7x7, partner max 0.3 µM) | 0.153 |  |  | 0.0282 | -0.0094 | 0.0615 |  |  | 0.0043 |  | 0.104 |  |  |  | 0.0064 |  | 0.0098 | 0.0623 | 0.0524
C[C@@H](Oc1cc(-c2cnn(C3CCNCC3)c2)cnc1N)c1c(Cl)ccc(F)c1Cl [Crizotinib] + Cn1cnc2c(F)c(Nc3ccc(Br)cc3Cl)c(C(=O)NOCCO)cc21 [Selumetinib] (first compound max 10 µM, 7x7, partner max 10 µM) | -0.0251 |  |  | -0.0411 | -0.0627 | -0.0308 |  |  | 0.0483 |  | -0.0378 |  |  |  | -0.0449 |  | -0.0073 | -0.0665 | -0.0534
O=C(c1cc(Cc2n[nH]c(=O)c3ccccc23)ccc1F)N1CCN(C(=O)C2CC2)CC1 [Olaparib] + CC1(C)CCC(CN2CCN(c3ccc(C(=O)NS(=O)(=O)c4ccc(NCC5CCOCC5)c([N+](=O)[O-])c4)c(Oc4cnc5[nH]ccc5c4)c3)CC2)=C(c2ccc(Cl)cc2)C1 [Venetoclax] (first compound max 10 µM, 7x7, partner max 1 µM) | -0.0238 |  |  | -0.0215 | 0.0371 | -0.0303 |  |  | -0.0442 |  | -0.0413 |  |  |  | -0.0173 |  | 0.0258 | -0.0418 | -0.0666
C[C@@H](Nc1cc(F)cc(F)c1)c1cc(C(=O)N(C)C)cc2c(=O)cc(N3CCOCC3)oc12 [AZD8186] + CC(=O)c1c(C)c2cnc(Nc3ccc(N4CCNCC4)cn3)nc2n(C2CCCC2)c1=O [Palbociclib] (first compound max 10 µM, 7x7, partner max 10 µM) | -0.0165 |  |  | 0.0075 | -0.0053 | -0.0098 |  |  | 0.0069 |  | 0.0701 |  |  |  | -0.0531 |  | 0.0891 | 0.0373 | 0.0239
